Laboratory results published in the NIST ThermoML archive (doi:10.1021/je049551l).
± gives the expanded uncertainty stated by the source.

Conditions: Crystal; DTA

Row | Structure (SMILES) | Normal melting temperature [°C]
1 | O=c1oc(-c2ccccc2)nc2ccccc12 [2-phenyl-4H-3,1-benzoxazin-4-one] | 124.00 ± 2
2 | CC(C)Cc1ccc(C(C)C(=O)O)cc1 (stereo not drawn) [ibuprofen] | 74.50 ± 3
3 | CC(=O)Nc1ccc(O)cc1 [N-acetyl-p-aminophenol] | 170.00 ± 4
4 | COc1ccc2cc([C@H](C)C(=O)O)ccc2c1 [(S)-(+)-naproxen] | 157.50 ± 1.1
5 | CC(=O)O[C@H]1C(=O)[C@@]2(C)[C@H]([C@H](OC(=O)c3ccccc3)[C@]3(O)C[C@H](OC(=O)[C@H](O)[C@@H](NC(=O)c4ccccc4)c4ccccc4)C(C)=C1C3(C)C)[C@]1(OC(C)=O)CO[C@@H]1C[C@@H]2O [paclitaxel] | 215.00 ± 4
6 | Cc1cn([C@H]2C[C@H](O)[C@@H](CO)O2)c(=O)[nH]c1=O [thymidine] | 187.00 ± 2
7 | NC(=O)/N=N/C(N)=O [azodicarbonamide] | 224.50 ± 1.1
8 | O=c1[nH]cc(F)c(=O)[nH]1 [5-fluoro-2,4(1H,3H)-pyrimidinedione] | 284.00 ± 4
